Patent publication US9340590B2 (priority 2011, dated 2016)
Read-outs that look alike come from different tables or passages of the source. Positions of bridges follow the written chain, without caps; N, C: chain ends. Non-standard residues stand in square brackets, D forms with d. Residues, ends and D or L forms follow the SMILES beside them. 1Nal = N[C@@H](Cc1cccc2ccccc12)C(=O)O

Assays:
Assay in all cases: cell-based
hNav1.5 = hNav1.5 (Homo sapiens, UniProt Q14524); conditions: IonWorks Quattro, read-out: IWQ Use Nav1.5
Chain of hNav1.5 (Q14524 whole entry, looked up): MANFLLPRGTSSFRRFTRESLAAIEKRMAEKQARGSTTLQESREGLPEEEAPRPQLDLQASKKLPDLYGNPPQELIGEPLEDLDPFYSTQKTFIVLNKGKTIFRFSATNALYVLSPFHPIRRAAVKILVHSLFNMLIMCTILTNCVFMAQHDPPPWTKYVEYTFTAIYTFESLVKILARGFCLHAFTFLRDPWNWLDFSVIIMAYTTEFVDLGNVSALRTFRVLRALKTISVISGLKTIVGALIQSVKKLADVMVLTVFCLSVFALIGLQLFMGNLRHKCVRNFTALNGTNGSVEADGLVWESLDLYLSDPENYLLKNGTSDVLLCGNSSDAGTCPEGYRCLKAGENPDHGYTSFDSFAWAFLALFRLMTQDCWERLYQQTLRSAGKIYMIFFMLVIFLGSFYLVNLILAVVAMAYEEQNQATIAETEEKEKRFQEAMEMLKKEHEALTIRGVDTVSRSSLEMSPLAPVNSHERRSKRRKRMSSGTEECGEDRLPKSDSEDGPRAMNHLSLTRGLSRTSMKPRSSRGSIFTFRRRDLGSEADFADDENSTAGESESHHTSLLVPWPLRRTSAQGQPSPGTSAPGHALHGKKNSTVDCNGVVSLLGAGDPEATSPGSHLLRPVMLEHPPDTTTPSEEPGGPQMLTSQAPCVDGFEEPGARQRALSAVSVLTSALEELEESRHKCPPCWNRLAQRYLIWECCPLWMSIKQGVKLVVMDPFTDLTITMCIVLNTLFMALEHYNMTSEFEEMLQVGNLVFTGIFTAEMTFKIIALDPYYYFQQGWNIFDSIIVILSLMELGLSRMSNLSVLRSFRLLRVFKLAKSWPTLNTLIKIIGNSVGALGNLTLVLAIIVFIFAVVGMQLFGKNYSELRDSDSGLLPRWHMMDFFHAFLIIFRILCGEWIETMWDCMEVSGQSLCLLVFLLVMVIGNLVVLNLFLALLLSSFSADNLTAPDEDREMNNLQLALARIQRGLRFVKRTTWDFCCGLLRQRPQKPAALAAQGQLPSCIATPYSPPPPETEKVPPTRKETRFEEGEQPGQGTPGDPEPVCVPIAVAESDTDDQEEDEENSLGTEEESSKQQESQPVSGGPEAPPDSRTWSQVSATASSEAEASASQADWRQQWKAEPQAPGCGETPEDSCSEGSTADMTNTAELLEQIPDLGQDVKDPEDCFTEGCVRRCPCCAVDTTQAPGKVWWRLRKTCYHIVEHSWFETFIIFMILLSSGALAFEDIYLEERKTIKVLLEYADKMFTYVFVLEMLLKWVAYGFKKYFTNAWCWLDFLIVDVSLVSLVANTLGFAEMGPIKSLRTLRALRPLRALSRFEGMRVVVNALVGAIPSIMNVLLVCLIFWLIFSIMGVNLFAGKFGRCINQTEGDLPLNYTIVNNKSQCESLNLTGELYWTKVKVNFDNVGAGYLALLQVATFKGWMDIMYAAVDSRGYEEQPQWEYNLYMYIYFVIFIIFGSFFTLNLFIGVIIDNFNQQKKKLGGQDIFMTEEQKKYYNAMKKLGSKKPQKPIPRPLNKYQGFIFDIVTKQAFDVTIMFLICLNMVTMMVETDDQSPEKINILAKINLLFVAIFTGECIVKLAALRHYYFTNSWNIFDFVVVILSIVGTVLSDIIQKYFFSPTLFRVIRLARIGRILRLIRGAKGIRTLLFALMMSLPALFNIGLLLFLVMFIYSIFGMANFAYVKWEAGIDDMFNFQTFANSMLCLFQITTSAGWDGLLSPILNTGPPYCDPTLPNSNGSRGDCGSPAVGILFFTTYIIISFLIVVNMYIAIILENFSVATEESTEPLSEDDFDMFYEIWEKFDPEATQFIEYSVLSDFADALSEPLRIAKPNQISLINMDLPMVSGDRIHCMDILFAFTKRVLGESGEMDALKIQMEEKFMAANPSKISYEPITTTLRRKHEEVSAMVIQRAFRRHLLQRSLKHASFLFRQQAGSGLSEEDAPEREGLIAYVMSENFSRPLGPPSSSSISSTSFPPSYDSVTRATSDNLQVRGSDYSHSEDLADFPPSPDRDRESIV

hNav1.3 = hNav1.3 (Homo sapiens, UniProt Q9NY46); conditions: IonWorks Quattro, read-out: IWQ Use Nav1.3
Chain of hNav1.3 (Q9NY46 whole entry, looked up): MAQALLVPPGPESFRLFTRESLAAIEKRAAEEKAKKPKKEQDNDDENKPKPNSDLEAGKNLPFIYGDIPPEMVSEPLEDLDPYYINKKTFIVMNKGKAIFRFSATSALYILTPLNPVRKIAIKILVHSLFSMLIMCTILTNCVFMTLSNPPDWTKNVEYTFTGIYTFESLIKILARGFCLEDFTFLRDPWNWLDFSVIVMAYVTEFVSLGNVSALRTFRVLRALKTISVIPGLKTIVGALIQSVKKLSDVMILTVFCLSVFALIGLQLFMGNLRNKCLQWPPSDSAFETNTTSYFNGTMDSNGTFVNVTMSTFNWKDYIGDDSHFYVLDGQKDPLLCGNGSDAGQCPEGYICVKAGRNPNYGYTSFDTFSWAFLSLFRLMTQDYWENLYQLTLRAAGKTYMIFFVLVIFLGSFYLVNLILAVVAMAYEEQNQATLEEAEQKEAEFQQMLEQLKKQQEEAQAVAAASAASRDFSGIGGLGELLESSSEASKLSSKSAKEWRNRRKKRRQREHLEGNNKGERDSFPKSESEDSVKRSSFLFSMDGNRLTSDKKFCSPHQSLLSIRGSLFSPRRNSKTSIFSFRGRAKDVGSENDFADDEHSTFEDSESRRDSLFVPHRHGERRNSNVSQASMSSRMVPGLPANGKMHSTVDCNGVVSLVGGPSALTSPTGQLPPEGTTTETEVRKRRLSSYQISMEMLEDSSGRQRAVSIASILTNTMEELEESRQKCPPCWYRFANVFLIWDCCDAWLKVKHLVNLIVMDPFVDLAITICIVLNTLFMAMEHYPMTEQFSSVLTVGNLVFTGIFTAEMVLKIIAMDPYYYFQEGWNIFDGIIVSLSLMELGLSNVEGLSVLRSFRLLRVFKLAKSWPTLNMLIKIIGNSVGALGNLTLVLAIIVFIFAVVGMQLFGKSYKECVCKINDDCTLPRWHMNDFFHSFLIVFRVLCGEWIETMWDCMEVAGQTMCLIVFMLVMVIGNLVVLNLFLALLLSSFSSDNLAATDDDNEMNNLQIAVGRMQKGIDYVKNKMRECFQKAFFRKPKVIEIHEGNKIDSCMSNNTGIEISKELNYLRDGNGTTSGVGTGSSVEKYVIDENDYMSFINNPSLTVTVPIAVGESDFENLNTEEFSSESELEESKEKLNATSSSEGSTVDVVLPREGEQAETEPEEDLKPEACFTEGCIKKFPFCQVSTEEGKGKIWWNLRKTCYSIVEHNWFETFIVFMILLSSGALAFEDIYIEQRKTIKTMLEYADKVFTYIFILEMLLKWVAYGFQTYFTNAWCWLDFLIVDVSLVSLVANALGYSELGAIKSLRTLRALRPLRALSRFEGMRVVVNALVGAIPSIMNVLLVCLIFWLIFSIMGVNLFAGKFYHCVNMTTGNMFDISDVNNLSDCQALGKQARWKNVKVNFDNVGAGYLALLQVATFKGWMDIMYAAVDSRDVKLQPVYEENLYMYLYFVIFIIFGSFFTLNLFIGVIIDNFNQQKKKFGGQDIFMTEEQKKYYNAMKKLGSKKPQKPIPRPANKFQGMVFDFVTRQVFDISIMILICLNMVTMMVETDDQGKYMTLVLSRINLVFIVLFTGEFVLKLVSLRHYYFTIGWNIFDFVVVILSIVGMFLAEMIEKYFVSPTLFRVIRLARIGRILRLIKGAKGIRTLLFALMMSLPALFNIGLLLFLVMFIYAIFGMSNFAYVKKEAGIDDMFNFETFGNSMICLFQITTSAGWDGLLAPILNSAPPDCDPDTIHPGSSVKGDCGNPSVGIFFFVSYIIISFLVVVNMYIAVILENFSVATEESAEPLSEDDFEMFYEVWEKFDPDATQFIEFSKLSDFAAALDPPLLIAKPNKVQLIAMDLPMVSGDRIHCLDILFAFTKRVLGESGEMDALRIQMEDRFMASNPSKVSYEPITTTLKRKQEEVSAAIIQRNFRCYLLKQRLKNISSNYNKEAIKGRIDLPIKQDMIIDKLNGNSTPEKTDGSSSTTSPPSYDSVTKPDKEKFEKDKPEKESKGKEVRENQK

hNav1.7 = hNav1.7 (Homo sapiens, UniProt Q15858); assay type: cell-based
[1] = IonWorks Quattro, use-dependent, […], read-out: IWQ Use Nav1.7 (μm)
[2] = IonWorks Quattro, use-dependent, […], read-out: IWQ Use Nav1.7

Q: For `CC[C@H](C)[C@@H]1NC(=O)[C@@H]2CSSC[C@@H]3NC(=O)[C@H](C(C)C)NC(=O)[C@H](CC(C)C)NC(=O)[C@H](CC(N)=O)NC(=O)[C@@H]4CCCN4C(=O)[C@H](CCCNC(=N)N)NC(=O)[C@H](CSSC[C@H](NC(=O)[C@@H](N)CC(=O)O)C(=O)N[C@@H](CC(C)C)C(=O)NCC(=O)N[C@@H](Cc4ccccc4)C(=O)N[C@@H](CCSC)C(=O)N[C@@H](CCCNC(=N)N)C(=O)N[C@@H](CCCCN)C(=O)N2)NC(=O)[C@H](CSSC[C@@H](C(=O)N[C@@H](CCCCN)C(=O)N[C@@H](Cc2ccc(O)cc2)C(=O)N[C@H](C(=O)N[C@@H](Cc2ccccc2)C(=O)N[C@@H](CCCNC(=N)N)C(N)=O)C(C)C)NC(=O)[C@H](Cc2c[nH]c4ccccc24)NC(=O)[C@H](CCCCN)NC(=O)[C@H](Cc2cnc[nH]2)NC(=O)[C@H]([C@@H](C)O)NC(=O)[C@H](CCCNC(=N)N)NC(=O)[C@H](CO)NC3=O)NC(=O)[C@H](CCCCN)NC(=O)[C@H](CC(=O)O)NC(=O)[C@H](CC(N)=O)NC(=O)[C@H](CC(=O)O)NC(=O)[C@@H]2CCCN2C1=O` [compound 76], which IC50 (hNav1.5; use-dependent, […]) is on record?
A: The IC50 was 9730 nM.

Q: And the IC50 (hNav1.3; use-dependent, […])?
A: Its IC50 is 100 nM.

Q: And the IC50 (hNav1.7; [1])?
A: The IC50 was 300 nM.

Q: How did the IC50 (hNav1.5; use-dependent, […]) turn out when `CC[C@H](C)[C@@H]1NC(=O)[C@@H]2CSSC[C@@H]3NC(=O)[C@H](C(C)C)NC(=O)[C@H](CC(C)C)NC(=O)[C@H](CC(N)=O)NC(=O)[C@@H]4CCCN4C(=O)[C@H](CCCNC(=N)N)NC(=O)[C@H](CSSC[C@H](NC(=O)[C@@H](N)CC(=O)O)C(=O)N[C@@H](CC(C)C)C(=O)NCC(=O)N[C@@H](Cc4ccccc4)C(=O)N[C@@H](CCSC)C(=O)N[C@@H](CCCNC(=N)N)C(=O)N[C@@H](CCCCN)C(=O)N2)NC(=O)[C@H](CSSC[C@@H](C(=O)N[C@@H](CCCCN)C(=O)N[C@@H](Cc2ccc(O)cc2)C(=O)N[C@H](C(=O)N[C@@H](Cc2cccc4ccccc24)C(N)=O)C(C)C)NC(=O)[C@H](Cc2c[nH]c4ccccc24)NC(=O)[C@H](CCCCN)NC(=O)[C@H](Cc2cnc[nH]2)NC(=O)[C@H]([C@@H](C)O)NC(=O)[C@H](CCCNC(=N)N)NC(=O)[C@H](CO)NC3=O)NC(=O)[C@H](CCCCN)NC(=O)[C@H](CC(=O)O)NC(=O)[C@H](CC(N)=O)NC(=O)[C@H](CC(=O)O)NC(=O)[C@@H]2CCCN2C1=O` [compound 80] (H-DCLGFMRKCIPDNDKCCRPNLVCSRTHKWCKYV[1Nal]-NH2; disulfide 2-17, 9-23, 16-30) was run?
A: The IC50 was 10200 nM.

Q: And the IC50 (hNav1.3; use-dependent, […])?
A: Its IC50 is 30 nM.

Q: What about the IC50 (hNav1.7; [2]) of the same molecule?
A: The IC50 was 20 nM.

Q: With `CSCC[C@@H]1NC(=O)[C@H](Cc2ccccc2)NC(=O)CNC(=O)[C@H](CC(C)C)NC(=O)[C@@H](NC(=O)[C@@H](N)CC(=O)O)CSSC[C@@H]2NC(=O)[C@@H]3CSSC[C@@H](C(=O)N[C@@H](CCCCN)C(=O)N[C@@H](Cc4ccc(O)cc4)C(=O)N[C@H](C(=O)N[C@@H](Cc4ccccc4)C(N)=O)C(C)C)NC(=O)[C@H](Cc4c[nH]c5ccccc45)NC(=O)[C@H](CCCCN)NC(=O)[C@H](Cc4c[nH]cn4)NC(=O)[C@H]([C@@H](C)O)NC(=O)[C@H](CCCNC(=N)N)NC(=O)[C@H](CO)NC(=O)[C@H](CSSC[C@H](NC(=O)[C@H](CCCCN)NC(=O)[C@H](CCCNC(=N)N)NC1=O)C(=O)N[C@@H](Cc1c[nH]c4ccccc14)C(=O)N1CCC[C@H]1C(=O)N[C@@H](CC(=O)O)C(=O)N[C@@H](CC(N)=O)C(=O)N[C@@H](CC(=O)O)C(=O)N[C@@H](CCCCN)C(=O)N3)NC(=O)[C@H](C(C)C)NC(=O)[C@H](CC(C)C)NC(=O)[C@H](CC(N)=O)NC(=O)[C@@H]1CCCN1C(=O)[C@H](CCCNC(=N)N)NC2=O` [compound 83] (H-DCLGFMRKCWPDNDKCCRPNLVCSRTHKWCKYVF-NH2; disulfide 2-17, 9-23, 16-30) as the molecule, how does the IC50 (hNav1.5; Use) read?
A: Its IC50 is 8020 nM.

Q: And the IC50 (hNav1.3; Use)?
A: The IC50 was 190 nM.

Q: And the IC50 (hNav1.7; IonWorks Quattro, Use, read-out: IWQ Use Nav1.7)?
A: The IC50 was 100 nM.

Q: Which IC50 (hNav1.5; Table 25, use, […]) does the source give for `CC[C@H](C)[C@@H]1NC(=O)[C@@H]2CSSC[C@@H]3NC(=O)[C@H](C(C)C)NC(=O)[C@H](CC(C)C)NC(=O)[C@H](CC(N)=O)NC(=O)[C@@H]4CCCN4C(=O)[C@H](CCCNC(=N)N)NC(=O)[C@H](CSSC[C@H](NC(=O)[C@@H](N)CC(=O)O)C(=O)N[C@@H](CC(C)C)C(=O)NCC(=O)N[C@@H](Cc4ccccc4)C(=O)N[C@@H](CCSC)C(=O)N[C@@H](CCCNC(=N)N)C(=O)N[C@@H](CCCCN)C(=O)N2)NC(=O)[C@H](CSSC[C@@H](C(=O)N[C@@H](CCCCN)C(=O)N[C@@H](Cc2c[nH]c4ccccc24)C(=O)N[C@H](C(=O)N[C@@H](Cc2ccccc2)C(N)=O)C(C)C)NC(=O)[C@H](Cc2c[nH]c4ccccc24)NC(=O)[C@H](CCCCN)NC(=O)[C@H](Cc2c[nH]cn2)NC(=O)[C@H]([C@@H](C)O)NC(=O)[C@H](CCCNC(=N)N)NC(=O)[C@H](CO)NC3=O)NC(=O)[C@H](CCCCN)NC(=O)[C@H](CC(=O)O)NC(=O)[C@H](CC(N)=O)NC(=O)[C@H](CC(=O)O)NC(=O)[C@@H]2CCCN2C1=O` [compound 85] (H-DCLGFMRKCIPDNDKCCRPNLVCSRTHKWCKWVF-NH2; disulfide 2-17, 9-23, 16-30) here?
A: Its IC50 is 6740 nM.

Q: What about the IC50 (hNav1.3; Table 25, use, […]) of the same molecule?
A: Its IC50 is 160 nM.

Q: What about the IC50 (hNav1.7; Table 25, IonWorks Quattro, use, […], read-out: IWQ Use Nav1.7) of the same molecule?
A: Its IC50 is 90 nM.

Q: Which results are given for `CC[C@H](C)[C@@H]1NC(=O)[C@@H]2CSSC[C@@H]3NC(=O)[C@H](C(C)C)NC(=O)[C@H](CC(C)C)NC(=O)[C@H](CC(N)=O)NC(=O)[C@@H]4CCCN4C(=O)[C@H](CCCNC(=N)N)NC(=O)[C@H](CSSC[C@H](NC(=O)[C@@H](N)CC(=O)O)C(=O)N[C@@H](CC(C)C)C(=O)NCC(=O)N[C@@H](Cc4ccccc4)C(=O)N[C@@H](CCSC)C(=O)N[C@@H](CCCNC(=N)N)C(=O)N[C@@H](CCCCN)C(=O)N2)NC(=O)[C@H](CSSC[C@@H](C(=O)N[C@@H](CCCCN)C(=O)N[C@@H](Cc2ccc(O)cc2)C(=O)N[C@H](C(=O)N[C@@H](Cc2c[nH]c4ccccc24)C(N)=O)C(C)C)NC(=O)[C@H](Cc2c[nH]c4ccccc24)NC(=O)[C@H](CCCCN)NC(=O)[C@H](Cc2c[nH]cn2)NC(=O)[C@H]([C@@H](C)O)NC(=O)[C@H](CCCNC(=N)N)NC(=O)[C@H](CO)NC3=O)NC(=O)[C@H](CCCCN)NC(=O)[C@H](CC(=O)O)NC(=O)[C@H](CC(N)=O)NC(=O)[C@H](CC(=O)O)NC(=O)[C@@H]2CCCN2C1=O` [compound 86] (H-DCLGFMRKCIPDNDKCCRPNLVCSRTHKWCKYVW-NH2; disulfide 2-17, 9-23, 16-30)?
A: IC50 (hNav1.5; use-dependent, […]): 10000 nM; IC50 (hNav1.3; use-dependent, […]): 180 nM; IC50 (hNav1.7; [2]): 260 nM

Q: For `CC[C@H](C)[C@@H]1NC(=O)[C@@H]2CSSC[C@@H]3NC(=O)[C@H](C(C)C)NC(=O)[C@H](CC(C)C)NC(=O)[C@H](CC(N)=O)NC(=O)[C@@H]4CCCN4C(=O)[C@H](CCCNC(=N)N)NC(=O)[C@H](CSSC[C@H](NC(=O)[C@@H](N)CC(=O)O)C(=O)N[C@@H](CC(C)C)C(=O)NCC(=O)N[C@@H](Cc4ccccc4)C(=O)N[C@@H](CCSC)C(=O)N[C@@H](CCCNC(=N)N)C(=O)N[C@@H](CCCCN)C(=O)N2)NC(=O)[C@H](CSSC[C@@H](C(=O)N[C@@H](CCCCN)C(=O)N[C@@H](Cc2ccc(O)cc2)C(=O)N[C@H](C(=O)N[C@@H](Cc2ccccc2)C(=O)N[C@@H](Cc2c[nH]c4ccccc24)C(N)=O)C(C)C)NC(=O)[C@H](Cc2c[nH]c4ccccc24)NC(=O)[C@H](CCCCN)NC(=O)[C@H](Cc2c[nH]cn2)NC(=O)[C@H]([C@@H](C)O)NC(=O)[C@H](CCCNC(=N)N)NC(=O)[C@H](CO)NC3=O)NC(=O)[C@H](CCCCN)NC(=O)[C@H](CC(=O)O)NC(=O)[C@H](CC(N)=O)NC(=O)[C@H](CC(=O)O)NC(=O)[C@@H]2CCCN2C1=O` [compound 87], which IC50 (hNav1.5; use-dependent, […]) is on record?
A: Its IC50 is 7870 nM.

Q: And the IC50 (hNav1.3; use-dependent, […])?
A: Its IC50 is 70 nM.

Q: And the IC50 (hNav1.7; [1])?
A: Its IC50 is 50 nM.

Q: Which IC50 (hNav1.5; Use) does the source give for `CSCC[C@@H]1NC(=O)[C@H](Cc2ccccc2)NC(=O)CNC(=O)[C@H](CC(C)C)NC(=O)[C@@H](NC(=O)[C@@H](N)CC(=O)O)CSSC[C@@H]2NC(=O)[C@@H]3CSSC[C@@H](C(=O)N[C@@H](CCCCN)C(=O)N[C@@H](Cc4ccc(O)cc4)C(=O)N[C@H](C(=O)N[C@@H](Cc4ccccc4)C(N)=O)C(C)C)NC(=O)[C@H](Cc4c[nH]c5ccccc45)NC(=O)[C@H](CCCCN)NC(=O)[C@H](Cc4cnc[nH]4)NC(=O)[C@H]([C@@H](C)O)NC(=O)[C@H](CCCNC(=N)N)NC(=O)[C@H](CO)NC(=O)[C@H](CSSC[C@H](NC(=O)[C@H](CCCCN)NC(=O)[C@H](CCCNC(=N)N)NC1=O)C(=O)N[C@@H](CC(N)=O)C(=O)N1CCC[C@H]1C(=O)N[C@@H](CC(=O)O)C(=O)N[C@@H](CC(N)=O)C(=O)N[C@@H](CC(=O)O)C(=O)N[C@@H](CCCCN)C(=O)N3)NC(=O)[C@H](C(C)C)NC(=O)[C@H](CC(C)C)NC(=O)[C@H](CC(N)=O)NC(=O)[C@@H]1CCCN1C(=O)[C@H](CCCNC(=N)N)NC2=O` [compound 90] (H-DCLGFMRKCNPDNDKCCRPNLVCSRTHKWCKYVF-NH2; disulfide 2-17, 9-23, 16-30) here?
A: The IC50 was 14100 nM.

Q: What about the IC50 (hNav1.3; Use) of the same molecule?
A: The IC50 was 190 nM.

Q: What about the IC50 (hNav1.7) of the same molecule?
A: The IC50 was 490 nM.
